From patent US6335339B1, “Triazine antiviral compounds” (Scriptgen Pharmaceuticals, Inc., priority 1998, dated 2002)

These compounds were tested on HIV derived RRE RNA (assay: heterologous hybridization inhibition assay with RRE RNA). Conditions: radiolabeled RRE RNA, rRNA competitor; call rule not given here.
Format: binding
From the text: Specificity is further tested in a third assay in which the radiolabeled RNA is the HIV derived RRE RNA and the biotinylated oligonucleotide is complementary to RRE. Compounds with high specific activity for εRNA are not expected to be inhibitory in the RRE RNA based assay. The specificity of the ligand for εRNA is expressed as the ratio between the IC50 value obtained with the specific target RNA and the IC50 value obtained with a heterologous target (RRE RNA), both in the presence of competitor RNA.
Biotinylated oligonucleotides 262.104 A (5′-biotin-TTAGGCACAGCTTGGAGGCTTGAACAGTG-3′) and 208.92 A (5′-biotin-CGTCATTGACGCTGCGCCCA-3′) were synthetically prepared (Oligos Etc., Willsonville, Oreg.). These oligonucleotides are complementary to regions of the εRNA and RRE RNA targets, respectively.
Compounds that inhibited the primary screening assay described above were individually titrated in the same assay at concentrations between 0.1 μM and 200 μM in the absence and presence of 60-fold excess rRNA as a non-specific competitor. A third titration was performed in a heterologous assay using radiolabeled RRE RNA as the target and the complementary biotinylated oligonucleotide 208.92 A. From these three assays, the IC50 values and specificity for each compound was calculated.
IC50 values using rRNA competitor (from Example 1) and radiolabeled RRE RNA are shown in Table 1 for the following ligands. […] Specificity is calculated as the ratio of RRE+rRNA IC50/εRNA+rRNA IC50.

Structure (SMILES)	RRE + rRNA IC50 (μM)	IC50 [µM]
Cc1ccc(Nc2nc(NCc3ccccc3)nc(Nc3ccc([N+](=O)[O-])cc3)n2)cc1C [Compound 194]	inactive	–
COc1ccc(Nc2nc(NN=Cc3ccc(Cl)cc3)nc(Nc3ccccc3)n2)cc1 [Compound 22]	inactive	–
Cc1ccc(Nc2nc(NN=Cc3ccccc3)nc(Nc3ccccc3)n2)cc1 [Compound 25]	inactive	–
CN(C)c1nc(NCc2ccccc2)nc(NCc2cccs2)n1 [Compound 192]	inactive	–
Cc1ccc(Nc2nc(NN=Cc3ccc(I)cc3)nc(Nc3ccccc3)n2)c(C)c1 [Compound 113]	–	300
CNc1nc(NN=Cc2cc(Cl)ccc2O)nc(Nc2ccccc2)n1 [Compound 245]	inactive	–
Cc1ccc(Nc2nc(NCc3ccccc3)nc(NN=Cc3cc(Cl)ccc3O)n2)cc1C [Compound 226]	–	422
CCN(CC)c1nc(NN=Cc2ccc([N+](=O)[O-])cc2)nc(Nc2ccccc2)n1 [Compound 13]	inactive	–
COc1c(C=NNc2nc(NCc3ccccc3)nc(Nc3ccccc3)n2)cccc1[N+](=O)[O-] [Compound 162]	inactive	–
CCCCN(CCCC)c1nc(NN=Cc2cccc(Cl)c2)nc(Nc2ccc([N+](=O)[O-])cc2)n1 [Compound 35]	inactive	–
C(=Cc1ccccc1)C=NNc1nc(Nc2ccccc2)nc(Nc2ccccc2)n1 [Compound 125]	–	1000
Oc1ccc2ccccc2c1C=NNc1nc(Nc2cccc3ccccc23)nc(N2CCOCC2)n1 [Compound 167]	inactive	–
CC(=NNc1nc(NCc2ccccc2)nc(Nc2ccccc2)n1)c1ccc([N+](=O)[O-])cc1 [Compound 182]	inactive	–
O=[N+]([O-])c1ccc(Nc2nc(NCc3ccccc3)nc(NN=Cc3ccccc3)n2)cc1 [Compound 24]	inactive	–
Ic1cccc(C=NNc2nc(Nc3ccc4ccccc4c3)nc(N3CCOCC3)n2)c1 [Compound 166]	inactive	–
Oc1ccc(I)cc1C=NNc1nc(NCc2ccccc2)nc(Nc2ccccc2)n1 [Compound 33]	inactive	–
Clc1ccc(C=NNc2nc(Nc3ccccc3)nc(N3CCCC3)n2)cc1 [Compound 218]	–	57.8
CC(=NNc1nc(Nc2ccccc2)nc(N2CCCC2)n1)c1ccc([N+](=O)[O-])cc1 [Compound 183]	inactive	–
Cc1ccc(Nc2nc(NN=Cc3ccc(O)cc3O)nc(Nc3ccc([N+](=O)[O-])cc3)n2)cc1C [Compound 9]	inactive	–
Oc1ccc(Cl)cc1C=NNc1nc(Nc2ccc3ccccc3c2)nc(N2CCOCC2)n1 [Compound 160]	–	420
Cc1ccc(Nc2nc(NN=Cc3cc(I)ccc3O)nc(Nc3ccccc3)n2)c(C)c1 [Compound 159]	inactive	–
CCCCN(CCCC)c1nc(N/N=C/c2cc(I)cc(I)c2O)nc(Nc2ccc([N+](=O)[O-])cc2)n1 [Compound 8]	inactive	–

Structure (SMILES)	RRE + rRNA IC50 (μM)	IC50 [µM]
COc1ccc(Nc2nc(NN=Cc3ccc(OC)cc3OC)nc(Nc3ccccc3)n2)cc1 [Compound 20]	inactive	–
Oc1ccccc1C=NNc1nc(Nc2ccccc2)nc(N2CCCCC2)n1 [Compound 169]	inactive	–
Cc1ccc(Nc2nc(NCc3cc(F)ccc3F)nc(Nc3ccc([N+](=O)[O-])cc3)n2)cc1C [Compound 248]	inactive	–
Cc1ccc(Nc2nc(NN=Cc3ccccc3O)nc(Nc3ccc([N+](=O)[O-])cc3)n2)cc1C [Compound 12]	inactive	–
Cc1cccc(C(=O)Oc2ccc(C=NNc3nc(N4CCCCC4)nc(N4CCCCC4)n3)cc2)c1 [Compound 181]	inactive	–
COc1c(C=NNc2nc(Nc3ccccc3)nc(Nc3ccccc3)n2)ccc(Br)c1O [Compound 168]	inactive	–
CCN(CC)c1nc(NN=Cc2c(O)ccc3ccccc23)nc(Nc2ccccc2)n1 [Compound 171]	inactive	–
O=[N+]([O-])c1ccc(Nc2nc(NN=Cc3ccc(Br)cc3)nc(N3CCCCCC3)n2)cc1 [Compound 117]	inactive	–
CCN(CC)c1nc(NN=Cc2ccc(Cl)c([N+](=O)[O-])c2)nc(Nc2cc(C)ccc2C)n1 [Compound 214]	inactive	–
Brc1cccc(C=NNc2nc(Nc3ccccc3)nc(N3CCOCC3)n2)c1 [Compound 163]	inactive	–
Cc1ccc(Nc2nc(Nc3cccc(C(F)(F)F)c3)nc(N3CCOCC3)n2)cc1C [Compound 251]	inactive	–
COc1ccc(Nc2nc(NN=Cc3cc(Br)cc(Br)c3O)nc(N3CCOCC3)n2)cc1 [Compound 200]	inactive	–
CN(C)c1nc(NCc2ccccc2)nc(NN=Cc2ccc(Cl)cc2Cl)n1 [Compound 224]	inactive	–
FC(F)(F)c1cccc(Nc2nc(Nc3cccc(Cl)c3)nc(N3CCOCC3)n2)c1 [Compound 247]	inactive	–
Cc1ccc(C=NNc2nc(Nc3ccc([N+](=O)[O-])cc3)nc(Nc3ccccc3C)n2)cc1 [Compound 15]	inactive	–
CCCCN(CCCC)c1nc(NN=Cc2ccc3c(c2)OCO3)nc(Nc2ccc([N+](=O)[O-])cc2)n1 [Compound 11]	inactive	–
Cc1ccc(Nc2nc(NN=Cc3cccc(I)c3)nc(Nc3ccccc3)n2)cc1 [Compound 30]	inactive	–
COc1c(Br)cc(Br)cc1C=NNc1nc(Nc2ccccc2)nc(N2CCCCC2)n1 [Compound 14]	inactive	–
Cc1ccc(Nc2nc(NN=Cc3ccc(Cl)cc3)nc(N3CCOCC3)n2)cc1 [Compound 249]	inactive	–
Cc1ccc(Nc2nc(NCc3ccccc3)nc(NN=Cc3ccc(F)cc3F)n2)cc1C [Compound 191]	inactive	–
CC(C=NNc1nc(Nc2ccc([N+](=O)[O-])cc2)nc(Nc2ccc(C)c(C)c2)n1)=Cc1ccccc1 [Compound 19]	inactive	–
Cc1ccc(Nc2nc(NCc3ccccc3)nc(NN=Cc3ccccc3F)n2)cc1C [Compound 228]	inactive	–

Structure (SMILES)	RRE + rRNA IC50 (μM)	IC50 [µM]
CNc1nc(NN=Cc2ccccc2C(F)(F)F)nc(Nc2cccc(C(F)(F)F)c2)n1 [Compound 253]	–	659
CCCCN(CCCC)c1nc(NN=Cc2ccc(Cl)cc2)nc(Nc2ccc([N+](=O)[O-])cc2)n1 [Compound 16]	inactive	–
O=[N+]([O-])c1ccc(Nc2nc(NCc3ccccc3)nc(N3CCOCC3)n2)cc1 [Compound 231]	inactive	–
COc1cccc(C=NNc2nc(Nc3ccccc3)nc(N3CCCC3)n2)c1O [Compound 170]	–	740
Cc1ccccc1Nc1nc(NN=Cc2ccc(I)cc2)nc(Nc2ccc([N+](=O)[O-])cc2)n1 [Compound 10]	inactive	–
Cc1ccc(Nc2nc(NCc3ccccc3)nc(NN=Cc3cc(Br)cc(Br)c3O)n2)cc1C [Compound 219]	inactive	–
Oc1ccc(Br)cc1C=NNc1nc(Nc2cccc(C(F)(F)F)c2)nc(N2CCOCC2)n1 [Compound 246]	inactive	–
O=C(NNc1nc(Nc2ccccc2)nc(Nc2cccc(C(F)(F)F)c2)n1)c1cccc(Br)c1 [Compound 220]	–	918
Cc1ccc(Nc2nc(NN=Cc3ccccc3)nc(Nc3ccccc3)n2)c(C)c1 [Compound 7]	Inactive	–
CCCCN(CCCC)c1nc(NN=Cc2ccc(OCC)c(O)c2)nc(Nc2ccc([N+](=O)[O-])cc2)n1 [Compound 23]	inactive	–
Brc1ccc(Nc2nc(NCc3ccccc3)nc(Nc3ccc(Br)cc3)n2)cc1 [Compound 230]	inactive	–
Oc1c(Br)cc(Cl)cc1/C=N/Nc1nc(Nc2cccc(C(F)(F)F)c2)nc(N2CCOCC2)n1 [Compound 34]	inactive	–
CCN(CC)CCNc1ccc2c3c(cccc13)C(=O)N(Nc1nc(NCc3ccccc3)nc(N(CC)CC)n1)C2=O [Compound 27]	inactive	–
COc1ccc(Nc2nc(NCc3cccc([N+](=O)[O-])c3)nc(NCc3cc(F)ccc3F)n2)cc1OC [Compound 225]	inactive	–
CC(=NNc1nc(Nc2ccccc2)nc(N2CCCC2)n1)c1ccc(F)cc1 [Compound 227]	inactive	–
Fc1cccc(C=NNc2nc(Nc3ccccc3)nc(N3CCCC3)n2)c1 [Compound 201]	inactive	–
Cc1ccc(Nc2nc(NNC(=O)c3ccccc3O)nc(Oc3ccc([N+](=O)[O-])cc3)n2)cc1C [Compound 250]	inactive	–
COc1ccc(C=NNc2nc(NCc3ccccc3)nc(Nc3ccccc3)n2)cc1 [Compound 165]	inactive	–
Cc1ccc(Nc2nc(NN=Cc3cccc([N+](=O)[O-])c3)nc(Nc3ccccc3)n2)c(C)c1 [Compound 229]	inactive	–
FC(F)(F)c1cccc(Nc2nc(Nc3ccccc3)nc(N3CCOCC3)n2)c1 [Compound 21]	inactive	–
Oc1ccc(Br)cc1C=NNc1nc(Nc2cccc(Br)c2)nc(N2CCOCC2)n1 [Compound 232]	inactive	–
COc1ccc(Nc2nc(NN=Cc3ccc(O)cc3O)nc(Nc3ccccc3)n2)cc1 [Compound 158]	inactive	–
